Publication PMC10076258, “New carbohydrate binding domains identified by phage display based functional metagenomic screens of human gut microbiota” (Communications Biology, 2023)

How the values were obtained:
MU1 = target: T1, MU1 (unidentified, UniProt Z9NE32H8P7); assay: isothermal titration calorimetry; assay type: binding, Homo sapiens; conditions: 20 mM HEPES, 150 mM NaCl, pH 7.5; sequential two-sites model, stronger site
T1 construct: metagenomic phage display insert in pET-28a(+) (NdeI/XhoI; forward primer in the T7 vector upstream of the insert), N-terminal His6 kept, E. coli BL21(DE3); monomer, ~39 kDa by SEC; GenBank entry within MN313892-MN313895, ON711254-ON711279, not assigned in text
T1 sequence (Z9NE32H8P7 1-238): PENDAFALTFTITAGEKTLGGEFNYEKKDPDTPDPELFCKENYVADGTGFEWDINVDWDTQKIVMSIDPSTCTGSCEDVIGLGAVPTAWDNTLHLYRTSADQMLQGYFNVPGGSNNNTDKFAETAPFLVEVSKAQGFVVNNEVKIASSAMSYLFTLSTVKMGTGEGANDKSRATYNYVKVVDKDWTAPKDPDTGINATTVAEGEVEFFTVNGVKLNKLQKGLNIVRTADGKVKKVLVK

MN3 = target: T2, MN3 (unidentified, UniProt Z9ZPU1GRL3); assay: isothermal titration calorimetry; assay type: binding, Homo sapiens; conditions: 20 mM HEPES, 150 mM NaCl, pH 7.5; sequential two-sites model, stronger site
T2 construct: metagenomic phage display insert in pET-28a(+) (EcoRI/HindIII), N- and C-terminal His6 kept, E. coli BL21(DE3); monomer (~33 kDa) and dimer (~77 kDa); GenBank entry within MN313892-MN313895, ON711254-ON711279, not assigned in text
T2 sequence (Z9ZPU1GRL3 1-298): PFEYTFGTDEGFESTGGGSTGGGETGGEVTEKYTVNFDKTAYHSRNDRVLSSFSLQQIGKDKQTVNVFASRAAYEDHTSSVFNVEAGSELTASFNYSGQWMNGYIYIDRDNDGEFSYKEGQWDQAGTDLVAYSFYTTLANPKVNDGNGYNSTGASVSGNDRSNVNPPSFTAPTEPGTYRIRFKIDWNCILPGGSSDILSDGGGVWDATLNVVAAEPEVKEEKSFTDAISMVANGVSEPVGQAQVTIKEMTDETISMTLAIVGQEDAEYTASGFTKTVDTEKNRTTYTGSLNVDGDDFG

[1] = target: MN3 (human fecal metagenome (organism not identified)); assay: SEC; HiPrep 26/60 HR Sephacryl S-200, 150 mM NaCl, 20 mM Tris pH 7.5, mostly 1.0 ml/min
Fetuin = target: T3, Fetuin (UniProt P12763 19-359, sialylated); assay: ITC; VP-ITC; protein in the sample cell, ligand titrated (20 or 35 injections at intervals of 180 s); buffer mostly 20 mM HEPES, 150 mM NaCl, pH 7.5; single run; conditions: both partners purified
T3 construct: fetuin, a glycoprotein used as a glycan ligand in calorimetry; also called sialylated fetuin
T3 sequence (looked up): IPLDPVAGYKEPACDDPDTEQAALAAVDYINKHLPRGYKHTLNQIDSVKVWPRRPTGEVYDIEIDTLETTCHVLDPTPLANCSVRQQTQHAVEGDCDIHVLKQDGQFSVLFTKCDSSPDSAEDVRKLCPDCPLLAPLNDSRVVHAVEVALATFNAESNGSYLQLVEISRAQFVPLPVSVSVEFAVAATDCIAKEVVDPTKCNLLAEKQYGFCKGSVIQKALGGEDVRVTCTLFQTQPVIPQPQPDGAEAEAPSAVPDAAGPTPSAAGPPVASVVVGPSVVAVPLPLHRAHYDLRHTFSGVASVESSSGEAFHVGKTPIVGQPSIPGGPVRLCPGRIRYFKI

Molecule: C#CCN(C(C)=O)[C@@H]1O[C@H](CO)[C@@H](O[C@@H]2O[C@H](CO)[C@H](O)[C@H](O[C@@H]3O[C@H](CO)[C@@H](O[C@@H]4O[C@H](CO)[C@H](O)[C@H](O)[C@H]4O[C@@H]4O[C@@H](C)[C@@H](O)[C@@H](O)[C@@H]4O)[C@H](O)[C@H]3NC(C)=O)[C@H]2O)[C@H](O)[C@H]1O [H antigen type-2 pentaose]
- Kd (MU1): 20.8 µM
- Kd (MN3): 36.8 µM

B1: MN3 (domain or fragment)
chain: PFEYTFGTDEGFESTGGGSTGGGETGGEVTEKYTVNFDKTAYHSRNDRVLSSFSLQQIGKDKQTVNVFASRAAYEDHTSSVFNVEAGSELTASFNYSGQWMNGYIYIDRDNDGEFSYKEGQWDQAGTDLVAYSFYTTLANPKVNDGNGYNSTGASVSGNDRSNVNPPSFTAPTEPGTYRIRFKIDWNCILPGGSSDILSDGGGVWDATLNVVAAEPEVKEEKSFTDAISMVANGVSEPVGQAQVTIKEMTDETISMTLAIVGQEDAEYTASGFTKTVDTEKNRTTYTGSLNVDGDDFG
modifications: not checked
- stoichiometry N [1]: 2

B2: MU3 (domain or fragment)
chain: QTPKDVTVVEKYQADGTGFSHTINVDWDKQKIVASIDFSNGGDDKDILAMTTGDSFTAFQTSTYRTMHWYCNQTAKQISGFFAKSGAGNNNTGRIDVADCLAKFEISKAEGLKVNGVVKMTPDALEELLTGDPIIIGSGESPKFSNAFYNYIKVVSLDWKETTEPEVTVKDEKTFNEALYMQDQKVADATVVVKG
- Kd (Fetuin): 239 µM
